From paper PMC5234776, “Study of the Antimicrobial Activity of Tilapia Piscidin 3 (TP3) and TP4 and Their Effects on Immune Functions in Hybrid Tilapia (Oreochromis spp.)” (PLoS ONE, 2017) come the findings set out here.

Peptide text beside a SMILES is read from it.

Assay [1] relates to V. vulnificus. Briefly: Time-kill analysis. Format: cell-based, Vibrio vulnificus. The following applies: for eradication of bacteria: 60 minutes of exposure at 2×MIC, in words; for time after which V. vulnificus CFUs recovered: peptide at 1xMIC. The method, then:
We determined the MICs of TP3, TP4, kanamycin, and ampicillin against V. vulnificus using a broth microdilution method in accordance with NCCLS guidelines. To measure the killing efficiencies of TP3 and TP4 against V. vulnificus, we prepared TP3 or TP4 solutions at MIC concentrations of 0.5×, 1×, and 2× and these solutions with equal volumes of V. vulnificus (1×10^6 CFU/ml) to each well of a 96-well plate. The plates were incubated at 28°C for 0, 60, 120, 180, 360, 540, 720, or 1440 minutes, and after the incubation period, 50 μL of each bacterial solution were plated on a TCBS plate to obtain viable cell counts. Broth grown in the absence of peptides was used as a negative control. The results were determined using triplicate independent experiments.

Assay [2] relates to V. vulnificus. In words: Tilapia survival, re-challenge of co-treatment survivors with V. vulnificus. Type of assay: in vivo, tilapia (Oreochromis spp.). As to conditions: survivors of 20 μg/fish co-treatment, followed seven days. An excerpt:
(§1) We obtained tilapia (Oreochromis spp.) from a commercial aquaculture company. The fish body lengths were 4.0±0.6 cm, and body weights were 3.1±0.3 g. The tilapia were maintained in a 2000 liter indoor aquarium at the Marine Research Station, Ilan, Taiwan. To study the efficacy with which TP3 and TP4 protect tilapia against V. vulnificus, we injected the bacteria into the abdominal cavities (peritoneum) of the tilapia using a syringe (29 Gx1/2, Terumo Medical, Elkton, MD, USA); control tilapia were injected with PBS-buffered saline. For the first trial in each group, we used 15 tilapia: (a) group 1 was injected with V. vulnificus (2×10^5 CFU/fish) only; (b) group 2 was injected with PBS only; and (c) group 3 was injected with bacterial cells (2×10^5 CFU/fish) combined with a mixture containing both TP3 and TP4 peptides (at 0.1, 1, 10, or 20 μg/fish) that had been incubated for 60 minutes at 28°C. Next, at 168 hours after the first injection, the tilapia that survived the first co-treatment were again injected with V. vulnificus (2×10^5 CFU/fish). For this second challenge, we chose tilapia with similar body weights and ages that had not been previously treated with V. vulnificus, TP3 or TP4 for the V. vulnificus-only group (control group), and we recorded the survival rate over seven days. For the third trial, each group contained 15 tilapia, each of which was injected with 20, 30, or 40 μg of TP3 or TP4 followed by V. vulnificus (2×10^5 CFU/fish) after 0.5, 1, or 2 hours. The survival rate was recorded after seven days. For the fourth trial, each group contained 15 tilapia, each of which was first injected with V. vulnificus (2×10^5 CFU/fish) and then with 20, 30, or 40 μg of TP3 or TP4 after 0.5, 1, or 2 hours; the survival rate was recorded over seven days. Each experimental group consisted of 15 fish per treatment and three replicates (triplicate groups of 15 fish per treatment). We performed multiple group comparisons by analysis of variance (ANOVA) using SPSS software, and pairwise comparisons of groups were performed using a t-test. Significant differences were indicated as *P<0.05 and **P<0.01.
The antimicrobial activities of TP3 and TP4 peptides were analyzed in tilapia infected with lethal amounts of bacteria. Different amounts of V. vulnificus were injected into the abdominal cavities of the fish, and survival rates were recorded as cumulative percentages (S1 Fig). To determine whether TP3 and TP4 had any toxic effects on the tilapia, we injected different doses of TP3 and TP4 (0.1, 1, 10, 20, 30, 40, or 50 μg/fish) into the abdominal cavity and recorded the cumulative survival percentage of the fish (S2 Fig). We also co-treated tilapia with different doses (0.1, 1, 10, 20 μg/fish) of TP3 or TP4 combined with 2x10^4 CFU of V. vulnificus to evaluate tilapia survival following treatment. […] After 14, 21, or 28 days following the first co-treatment with TP3, the tilapia that survived in the 20 μg/fish TP3 experimental group were injected with a second dose of 2x10^4 CFU of V. vulnificus, and the survival rates were measured for another seven days. […] In the co-treatment experiments, at 14, 21, or 28 days after the first co-treatment with TP4, the surviving tilapia in the 20 μg/fish TP4 experimental group received a second injection of 2x10^4 CFU of V. vulnificus, and the survival rates were measured for another seven days.

For assay [3], the system named is V. vulnificus. Briefly: Tilapia survival, peptide injected after V. vulnificus infection (post-treatment). Type of assay: in vivo, tilapia (Oreochromis spp.). The following applies: seven days.
Description: as §1

Assay [4] concerns V. vulnificus. In words: Membrane perturbation, NPN uptake. Type of assay: cell-based, Vibrio vulnificus. The following applies: 1×10^6 CFU/ml, 30 minutes, 40 μmol/L NPN; kanamycin: slight increase only. How it is done: We used previously reported methods for the membrane perturbation assay. Briefly, a single colony of V. vulnificus was cultured in TSB medium for 480 minutes at 28°C, and the adjusted culture (1×10^6 CFU/ml) was aliquoted into different tubes with or without TP4 or TP3. After incubating the cells for 30 minutes, we added 40 μmol/L 1-N-phenylnaphthylamine (NPN) and continued to incubate the cells. Tubes containing PBS with NPN and bacterial cells with NPN served as controls. The NPN fluorescence intensity was detected using a fluorescence ELISA reader. All experiments were performed in triplicate, and the results are expressed as means with standard errors (SE).

Assay [5] deals with V. vulnificus. In words: Tilapia survival, peptide injected before V. vulnificus infection (pre-treatment). Type of assay: in vivo, tilapia (Oreochromis spp.). As to conditions: 7 days.
Description: as §1

Setting [6] is: peptide 20 μg/fish 0.5 hours after V. vulnificus.
The mark [7] stands for this setting: peptide 20 μg/fish 1 hour after V. vulnificus.
The mark [8] stands for this setting: peptide 20 μg/fish 2 hours after V. vulnificus.
Where [9] appears, read: peptide 30 μg/fish 0.5 hours after V. vulnificus.
[10] abbreviates: peptide 30 μg/fish 1 hour after V. vulnificus.
Where [11] appears, read: peptide 30 μg/fish 2 hours after V. vulnificus.
[12] abbreviates: peptide 40 μg/fish 0.5 hours after V. vulnificus.
[13] abbreviates: peptide 40 μg/fish 1 hour after V. vulnificus.
The mark [14] stands for this setting: peptide 40 μg/fish 2 hours after V. vulnificus.
[15] abbreviates: peptide 20 μg/fish 0.5 hours before V. vulnificus.
[16] abbreviates: peptide 20 μg/fish 1 hour before V. vulnificus.
Setting [17] is: peptide 20 μg/fish 2 hours before V. vulnificus.
[18] abbreviates: peptide 30 μg/fish 0.5 hours before V. vulnificus.
[19] abbreviates: peptide 30 μg/fish 1 hour before V. vulnificus.
[20] abbreviates: peptide 30 μg/fish 2 hours before V. vulnificus.
Where [21] appears, read: peptide 40 μg/fish 0.5 hours before V. vulnificus.
Where [22] appears, read: peptide 40 μg/fish 1 hour before V. vulnificus.
[23] abbreviates: peptide 40 μg/fish 2 hours before V. vulnificus.

With `CC[C@H](C)[C@H](NC(=O)[C@H](CC(C)C)NC(=O)[C@H](CO)NC(=O)[C@H](Cc1c[nH]cn1)NC(=O)[C@@H](NC(=O)[C@H](Cc1c[nH]cn1)NC(=O)[C@H](CCCCN)NC(=O)CNC(=O)[C@@H](NC(=O)[C@H](CO)NC(=O)[C@H](Cc1ccccc1)NC(=O)[C@H](CC(C)C)NC(=O)CNC(=O)CNC(=O)[C@@H](NC(=O)[C@@H](NC(=O)[C@H](Cc1c[nH]cn1)NC(=O)[C@H](Cc1c[nH]cn1)NC(=O)[C@@H](NC(=O)[C@@H](N)Cc1ccccc1)[C@@H](C)CC)[C@@H](C)CC)[C@@H](C)CC)C(C)C)[C@@H](C)CC)C(=O)N[C@@H](Cc1c[nH]cn1)C(=O)NCC(=O)N[C@@H](Cc1c[nH]cn1)C(=O)O` [TP3, tilapia piscidin 3] (H-FIHHIIGGLFSVGKHIHSLIHGH-OH), in the assay on V. vulnificus [1], the eradication of bacteria entry was “completely eradicated”. Moreover, the “time after which V. vulnificus CFUs recovered” value with V. vulnificus [1] is listed as “approximately 6 hours”. Moreover, the “survival rate after second injection of V. vulnificus” value with V. vulnificus [2] (re-challenged after 14 days) stood at 17.8%; in the assay on V. vulnificus [2] (re-challenged after 21 days) it was 26.7%; in the assay with V. vulnificus [2] (re-challenged after 28 days), 35.6%. Moreover, the survival rate was determined as 33.3% with V. vulnificus [3] (setting [6]); 20% with V. vulnificus [3] (setting [7]); 0% in the assay on V. vulnificus [3] (setting [8]); 33.3% in the assay with V. vulnificus [3] (setting [9]); 15.5% in the assay on V. vulnificus [3] (setting [10]); 4.5% in the assay on V. vulnificus [3] (setting [11]). For the same molecule, the survival rate in the assay on V. vulnificus [3] (setting [12]) is 24.4%; with V. vulnificus [3] (setting [13]) it was 8.9%; in the assay on V. vulnificus [3] (setting [14]) it was 0%; in the assay on V. vulnificus [5] (setting [15]), 13.3%; in the assay on V. vulnificus [5] (setting [16]), 2.2%; with V. vulnificus [5] (setting [17]), 2.2%. In addition, the survival rate turned out to be 28.9% in the assay with V. vulnificus [5] (setting [18]); 11.8% in the assay with V. vulnificus [5] (setting [19]); 8.9% in the assay on V. vulnificus [5] (setting [20]); 26.7% in the assay on V. vulnificus [5] (setting [21]); 8.9% with V. vulnificus [5] (setting [22]); 4.4% with V. vulnificus [5] (setting [23]). The “concentration that increased NPN fluorescence” value with V. vulnificus [4] came out at 60 µg/mL.

In the case of `CC[C@H](C)[C@H](NC(=O)[C@H](C)NC(=O)[C@H](CCCCN)NC(=O)CNC(=O)[C@H](C)NC(=O)[C@H](CO)NC(=O)[C@H](Cc1ccccc1)NC(=O)[C@H](CC(C)C)NC(=O)CNC(=O)CNC(=O)[C@@H](NC(=O)[C@@H](NC(=O)[C@H](Cc1c[nH]cn1)NC(=O)[C@H](Cc1c[nH]cn1)NC(=O)[C@@H](NC(=O)[C@@H](N)Cc1ccccc1)[C@@H](C)CC)[C@@H](C)CC)[C@@H](C)CC)C(=O)N[C@@H](Cc1c[nH]cn1)C(=O)N[C@@H](CCCNC(=N)N)C(=O)N[C@@H](CC(C)C)C(=O)N[C@H](C(=O)N[C@@H](CCCNC(=N)N)C(=O)N[C@@H](CCCNC(=N)N)C(=O)N[C@@H](CCCNC(=N)N)C(=O)N[C@@H](CCCNC(=N)N)C(=O)N[C@@H](CCCNC(=N)N)C(=O)O)[C@@H](C)CC` [TP4, tilapia piscidin 4] (H-FIHHIIGGLFSAGKAIHRLIRRRRR-OH), the eradication of bacteria result in the assay on V. vulnificus [1] is reported as “completely eradicated”. Moreover, the “time after which V. vulnificus CFUs recovered” value in the assay with V. vulnificus [1] is approximately 9 h. The “survival rate after second injection of V. vulnificus” value in the assay on V. vulnificus [2] (re-challenged after 14 days) worked out at 17.8%; in the assay with V. vulnificus [2] (re-challenged after 21 days), 37.8%; with V. vulnificus [2] (re-challenged after 28 days), 42.2%. Also, the survival rate in the assay with V. vulnificus [3] (setting [6]) is reported as 48.9%; with V. vulnificus [3] (setting [7]), 22.2%; in the assay on V. vulnificus [3] (setting [8]) it was 4%; in the assay on V. vulnificus [3] (setting [9]), 40%; in the assay with V. vulnificus [3] (setting [10]) it was 20%; in the assay with V. vulnificus [3] (setting [11]) it was 0%. Also, the survival rate in the assay on V. vulnificus [3] (setting [12]) stood at 2.2%; in the assay with V. vulnificus [3] (setting [13]), 4.4%; with V. vulnificus [3] (setting [14]), 6.7%; in the assay with V. vulnificus [5] (setting [15]) it was 37.8%; in the assay on V. vulnificus [5] (setting [16]), 4.4%; in the assay on V. vulnificus [5] (setting [17]), 0%. Also, the survival rate worked out at 31.1% in the assay with V. vulnificus [5] (setting [18]); 20% in the assay on V. vulnificus [5] (setting [19]); 2.2% in the assay on V. vulnificus [5] (setting [20]); 11.1% in the assay on V. vulnificus [5] (setting [21]); 4.4% with V. vulnificus [5] (setting [22]); 4.4% in the assay with V. vulnificus [5] (setting [23]). Further, the “concentration that increased NPN fluorescence” value with V. vulnificus [4] was determined as 8 µg/mL.
